Tests used:
[1] = test system: McA-RH7777 cells (A18-C3); assay: Live imaging of lysosomal motility and lysosome-CLD interaction (kiss-and-run); assay type: cell-based, rat
Method: In certain non-limiting examples described herein, McA-RH7777 cells stably expressing human apoB-100 and human apoC-III (designated A18-C3) were used for the studies. […] In addition, these studies, particularly those concerning EPA- or DHA-triggered lysosomal motility and CLD degradation, were also performed using primary rat hepatocytes. Transfection of plasmids encoding proteins of interest, or transfection of siRNA specific for silencing target gene expression, was achieved using the FuGENE HP Extreme reagent (Roche). Representative gene silencing siRNA sequences, which are not meant to be limiting, are described in Table 1, and plasmids encoding proteins of interest are described in Table 2. The effectiveness of siRNA silencing was verified by Western-blotting of cellular content of the target proteins, and by intracellular localization assay using siRNA-Tracker (Mirus Bioscience). Twenty-four h after plasmid transfection, or 48 h after siRNA transfection, the cells were cultured in lipid-rich media containing fetal bovine serum (20%) and OA (0.4 mM). The lipid-laden cells were switched to fresh media supplemented with OA or EPA (0.4 mM). In live imaging experiments, LipidTOX Red (Life Technologies) and LysoTracker (Life Technologies) were added to media prior to EPA treatment, to visualize lipid droplets and lysosomes, respectively. For visualizing peroxisomes, Peroxisome-GFP (Invitrogen) was introduced to the cells 24 h prior to experiments. Quantification of cell lipid contents was achieved either by direct mass measurement (HPTLC) and counting the number of lipid droplets using Image J Lipid Droplet Counter Plug-In, or indirectly by Western blot analysis of cellular content of ADRP. Secretion of apoB and TG-rich lipoprotein was determined by Western blot analysis and metabolic labeling. Mitochondrial β-oxidation was measured using MitoSOX Red (Life Technologies) in situ. Autophagic flux was determined by using Cyto-ID assay (Enzo Life Science) and by monitoring GFP-LC3 clustering in situ. Interaction of Arl8b and subunits of the HOPS complex was determined in situ by the proximity ligation assay (Olink Biosience). Cytoplasmic pH was measured using the cytosolic pHrodo indicator reagent (Invitrogen). Live imaging of fluorescent-tagged proteins was performed 1 h post-EPA treatment. Cells were also collected at the time of EPA treatment for transmission EM and tomography, as well as immuno-EM. For movies, cells were imaged at 60 sec intervals every 5 min, for a total of 30 min.
Cells were grown on 35-mm glass bottom dishes (Ibidi GmbH München, Germany) for 16 h in DMEM supplemented with FBS (20%) and OA (0.4 mM). Cells were imaged using a Zeiss 510 META laser scanning confocal microscope with a heated CO2-controlled stage (5% CO2 at 37° C.). Images were captured at a frame-rate of 30 frame/sec using a 63×. N.A.1.4 objective. Recommended laser lines and filter combinations were used for each dye. For visualization of lipid droplets, lysosomes, mitochondria, and mitochondrial β-oxidation, the respective reagents LipidTOX Red (Invitrogen), LysoTracker (Life Technology), MitoTracker (Life Technology), MitoSox Red (Invitrogen), and Peroxisome-GFP BacMam2.0 (Invitrogen) were introduced into the cells, according to manufacturers' recommendations, prior to EPA treatment.
Cells were cultured with lipid-rich media containing OA (0.4 mM) for 16 h. The lipid-laden cells were switched to fresh media containing EPA (0.4 mM) for 1 h, and the lysosomal movement towards lipid droplets was recorded by time-lapse microscopy. Fluorescent intensity of lysosomal signals at the periphery of selected individual lipid droplet was measured using Image J Live Intensity Profiler Plug-in^31-33 over a period of 40 sec. Quantification for each condition was carried out for 60 individual lipid droplets from three independent experiments. Constant threshold was applied to all of the images in each experiment.

[2] = test system: McA-RH7777 cells (A18-C3); assay: Measurement of cytosolic pH (pHrodo); assay type: cell-based, rat; conditions: OA or EPA treatment
Method: In certain non-limiting examples described herein, McA-RH7777 cells stably expressing human apoB-100 and human apoC-III (designated A18-C3) were used for the studies. […] In addition, these studies, particularly those concerning EPA- or DHA-triggered lysosomal motility and CLD degradation, were also performed using primary rat hepatocytes. Transfection of plasmids encoding proteins of interest, or transfection of siRNA specific for silencing target gene expression, was achieved using the FuGENE HP Extreme reagent (Roche). […] Quantification of cell lipid contents was achieved either by direct mass measurement (HPTLC) and counting the number of lipid droplets using Image J Lipid Droplet Counter Plug-In, or indirectly by Western blot analysis of cellular content of ADRP. Secretion of apoB and TG-rich lipoprotein was determined by Western blot analysis and metabolic labeling. Mitochondrial β-oxidation was measured using MitoSOX Red (Life Technologies) in situ. Autophagic flux was determined by using Cyto-ID assay (Enzo Life Science) and by monitoring GFP-LC3 clustering in situ. Interaction of Arl8b and subunits of the HOPS complex was determined in situ by the proximity ligation assay (Olink Biosience). Cytoplasmic pH was measured using the cytosolic pHrodo indicator reagent (Invitrogen). […]

hepatic cells = assay: Prolonged oleate treatment (OA-induced steatosis) of hepatic cells; assay type: cell-based; conditions: oleate 0.4 mM for up to 3 days
Text: FIG. 36 illustrates that the LD content in cells cultured under lipid-rich conditions may be manipulated by expression of different forms of Arl8b. Images in the top row show position of lysosomes in cells cultured in a lipid-rich medium (i.e. supplemented with oleate) for up to 4 days. After 1-day treatment with oleate, lysosomes (stained with LysoTracker, green) were accumulated in the perinuclear regions of cells. However after 2-day oleate treatment, lysosomes were relocated towards the LDs at cell periphery. The relocation of lysosomes from the perinuclear region toward cell periphery indicates perturbed lysosomal motility under oleate-treatment conditions, which leads to prolonged association of lysosomes with LDs. Accumulation/higher interaction of lysosomes on LDs became more pronounced after 3- and 4-day treatment with oleate, with clear rings of lysosomes around LDs. Expression of the GDP-bound form of Arl8b, or Arl8b^T34N (or Arl8b “DN”, dominant negative), protects hepatocytes from accumulation of LDs upon long-term treatment with oleate. Note that even after 3 days, cells expressing Arl8b “DN” were healthy and accumulated low numbers of LDs (middle row). In contrast, expression of the GTP-bound form of Arl8b, or Arl8b^Q75L (or Arl8b “DA”, dominant active), exacerbated accumulation of LDs in cells (images in the bottom row). In fact, the cells could not tolerate long-term treatment and started to die after day 2. This situation may be similar to that in advanced levels of fatty liver, which causes hepatocyte apoptosis;
In these cells, lysosomes were continuously in contact with CLD, indicative of stalled lysosomal motility. This persistent lysosomal interaction with CLDs (i.e. “kiss” without “run”) clearly indicates the interfered process of microautophagy and lack of a mechanism in the cells, after prolonged OA treatment, that facilitates dissociation of lysosomes from CLDs, blocking the engulfment process. Thus, phenotypically, accumulation of CLD in cells cultured in lipid-rich media (e.g. supplementation with 0.4 mM OA) is invariably associated with a compromised lysosomal motility (i.e. kiss-and-run).

CCCCCCCC/C=C\CCCCCCCC(=O)O [OA, oleic acid, reference compound]
lysosomal motility and direct lysosomal interaction with CLD ([1]; fatty acid added to lipid-laden cells, live imaging): reduced levels of interaction between lysosomes and lipid droplets
activation of microautolipophagy ([1]; oleate treatment): transient and is of low magnitude
duration of the brief activation of microautolipophagy ([1]; oleate treatment): 10 to 15 min
cytoplasmic pH [2]: neutral
steatosis (CLD accumulation) (hepatic cells): developed severe steatosis

Reference: US11298402B2, “Lysosomal degradation of lipids and proteins and method of use thereof” (University of Ottawa, priority 2015, dated 2022)
